Key:
[1] = target: purified human Factor XIa (Homo sapiens (Human), UniProt P03951); assay: Factor XIa Assay; format: biochemical; conditions: substrate Z-Gly-Pro-Arg-AFC 100 μM, 40 pM enzyme, pH 7.4; read-out: FXIa IC50
Description: The effectiveness of a compound of the present invention as an inhibitor of Coagulation Factor XIa can be determined using a relevant purified serine protease, and an appropriate synthetic substrate. The rate of hydrolysis of the chromogenic or fluorogenic substrate by the relevant serine protease was measured both in the absence and presence of compounds of the present invention. Assays were conducted at room temperature or at 37° C. […] A decrease in the rate of fluorescence change in the presence of inhibitor is indicative of enzyme inhibition. Such methods are known to one skilled in the art. […]
Factor XIa determinations were made in 50 mM HEPES buffer at pH 7.4 containing 150 mM NaCl, 5 mM CaCl2, and 0.1% PEG 8000 (polyethylene glycol; JT Baker or Fisher Scientific). Determinations were made using purified human Factor XIa at a final concentration of 40 pM (Sekisui Diagnostics) and the synthetic substrate, Z-Gly-Pro-Arg-AFC, TFA salt (Sigma #C0980) at a concentration of 100 μM.
Times required to achieve equilibration between enzyme and inhibitor were determined in control experiments. Initial velocities of product formation in the absence (Vo) or presence of inhibitor (Vi) were measured. Assuming competitive inhibition, and that unity is negligible compared Km/[S], [I]/e, and [I]/e (where [S], [I], and e respectively represent the total concentrations, of substrate, inhibitor and enzyme), the equilibrium constant (Ki) for dissociation of the inhibitor from the enzyme can be obtained from the dependence of Vo/Vi on [I] shown in the following equation.

[2] = target: purified Human plasma kallikrein (Homo sapiens (Human), UniProt P03952); assay: Kallikrein Assay; format: biochemical; conditions: Plasma kallikrein; substrate Acetyl-K-P-R-AFC, 0.5 nM enzyme, pH 7.4; read-out: PK IC50
Chain of purified Human plasma kallikrein (P03952 391-638): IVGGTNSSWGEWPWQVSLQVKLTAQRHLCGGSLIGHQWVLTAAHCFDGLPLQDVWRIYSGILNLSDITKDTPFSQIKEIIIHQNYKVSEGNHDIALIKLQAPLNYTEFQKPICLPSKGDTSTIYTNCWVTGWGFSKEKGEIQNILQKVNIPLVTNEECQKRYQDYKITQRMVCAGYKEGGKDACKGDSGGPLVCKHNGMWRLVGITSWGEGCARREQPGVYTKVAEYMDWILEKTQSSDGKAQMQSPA
Chain of purified Human plasma kallikrein (P03952 20-390 partner): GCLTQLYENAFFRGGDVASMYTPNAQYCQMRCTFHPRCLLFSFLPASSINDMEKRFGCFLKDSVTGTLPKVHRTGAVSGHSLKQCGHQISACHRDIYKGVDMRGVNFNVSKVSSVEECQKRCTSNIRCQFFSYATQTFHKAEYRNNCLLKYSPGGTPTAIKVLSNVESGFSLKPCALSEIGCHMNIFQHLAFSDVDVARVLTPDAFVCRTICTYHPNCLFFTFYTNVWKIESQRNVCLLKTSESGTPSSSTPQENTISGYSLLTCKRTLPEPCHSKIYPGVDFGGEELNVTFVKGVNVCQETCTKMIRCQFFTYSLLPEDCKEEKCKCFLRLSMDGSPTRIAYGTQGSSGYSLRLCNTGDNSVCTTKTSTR
Description: The effectiveness of a compound of the present invention as an inhibitor of Kallikrein can be determined using a relevant purified serine protease, and an appropriate synthetic substrate. The rate of hydrolysis of the chromogenic or fluorogenic substrate by the relevant serine protease was measured both in the absence and presence of compounds of the present invention. Assays were conducted at room temperature or at 37° C. […] A decrease in the rate of fluorescence change in the presence of inhibitor is indicative of enzyme inhibition. Such methods are known to one skilled in the art. The results of this assay are expressed as the inhibitory constant, Ki.
Kallikrein determinations were made in 50 mM HEPES buffer at pH 7.4 containing 150 mM NaCl, 5 mM CaCl2, and 0.1% PEG 8000 (polyethylene glycol; Fisher Scientific). Determinations were made using purified Human plasma kallikrein at a final concentration of 0.5 nM (Enzyme Research Laboratories) and the synthetic substrate, Acetyl-K-P-R-AFC (Sigma # C6608) at a concentration of […].
Times required to achieve equilibration between enzyme and inhibitor were determined in control experiments. The reactions were performed under linear progress curve conditions and fluorescence increase measured at 405 Ex/510 Em nm. […] IC50 was determined by inflection point from a four parameter logistic curve fit. Ki was calculated using the Cheng Prusoff equation, Ki=IC50/(1+([S]/Km)).

Chain of purified human Factor XIa (P03951 388-625): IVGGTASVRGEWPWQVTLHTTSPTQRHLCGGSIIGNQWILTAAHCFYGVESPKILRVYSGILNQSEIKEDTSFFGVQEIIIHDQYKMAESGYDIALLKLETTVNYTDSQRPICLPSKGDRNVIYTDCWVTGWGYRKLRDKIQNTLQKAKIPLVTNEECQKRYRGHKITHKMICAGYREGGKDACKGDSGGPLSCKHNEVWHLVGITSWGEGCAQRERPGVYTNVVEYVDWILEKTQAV
Chain of purified human Factor XIa (P03951 19-387 partner): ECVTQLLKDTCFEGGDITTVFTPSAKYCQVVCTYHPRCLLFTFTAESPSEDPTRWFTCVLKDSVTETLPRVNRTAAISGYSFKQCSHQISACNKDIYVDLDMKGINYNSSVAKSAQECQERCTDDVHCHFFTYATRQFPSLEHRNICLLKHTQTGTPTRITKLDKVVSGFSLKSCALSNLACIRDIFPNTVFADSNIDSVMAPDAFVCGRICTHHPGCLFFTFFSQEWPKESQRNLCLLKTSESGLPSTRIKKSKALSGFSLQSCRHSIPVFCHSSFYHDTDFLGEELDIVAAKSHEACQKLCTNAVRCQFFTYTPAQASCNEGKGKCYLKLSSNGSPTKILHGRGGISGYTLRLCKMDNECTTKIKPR

IC50 [1] | IC50 [2] | SMILES
8.71 nM | 325 nM | COCCNC(=O)N1CCC(c2cccc([C@H](Cc3ccccc3)c3ccc(-c4cc(Cl)ccc4-n4cnnn4)c[n+]3[O-])c2)CC1 [Example 48, 4-{3-[(1s)-1-{5-[5-chloro-2-(1H-tetrazol-1-yl)phenyl]-1-oxidopyridin-2-yl}-2-phenylethyl]phenyl}-N-(2-methoxyethyl) piperidine-1-carboxamide]
6.89 nM | 414 nM | O=C(NC1CCOC1)N1CCC(c2cccc([C@H](Cc3ccccc3)c3ccc(-c4cc(Cl)ccc4-n4cnnn4)c[n+]3[O-])c2)CC1 (stereo partly drawn) [Example 49, 4-{3-[(1S)-1-{5-[5-chloro-2-(1H-tetrazol-1-yl)phenyl]-1-oxidopyridin-2-yl}-2-phenylethyl]phenyl}-N-(tetrahydrofuran-3-yl)piperidine-1-carboxamide]
13.2 nM | 614 nM | O=C(NC1CCC1)N1CCC(c2cccc([C@H](Cc3ccccc3)c3ccc(-c4cc(Cl)ccc4-n4cnnn4)c[n+]3[O-])c2)CC1 [Example 51, 4-{3-[(1S)-1-{5-[5-chloro-2-(1H-tetrazol-1-yl)phenyl]-1-oxidopyridin-2-yl}-2-phenylethyl]phenyl}-N-cyclobutyl piperidine-1-carboxamide]
6.48 nM | 384 nM | O=C(NCC1CCOC1)N1CCC(c2cccc([C@H](Cc3ccccc3)c3ccc(-c4cc(Cl)ccc4-n4cnnn4)c[n+]3[O-])c2)CC1 (stereo partly drawn) [Example 52, 4-{3-[(1S)-1-{5-[5-chloro-2-(1H-tetrazol-1-yl)phenyl]-1-oxidopyridin-2-yl}-2-phenylethyl]phenyl}-N-(tetrahydrofuran-3-ylmethyl) piperidine-1-carboxamide]

From US9975874B2, “Factor XIa inhibitors” (Merck Sharp & Dohme Corp., priority 2014, dated 2018)
